Several values for one entry are separate records, joined by “and”; a condition that tells them apart may be missing. Identical values can stand only once.
Key:
human Nav1.7 channels = biological target: T1, human Nav1.7 channels (Homo sapiens, UniProt Q15858); experiment: IonWorks Quattro automated patch-clamp, inactivated state block of Nav1.7; assay type: cell-based; details: human Nav1.7 stably expressed in HEK 293 cells, double-pulse protocol, read-out: potency for the Nav 1.7 sodium ion channel (as measured by IonWorks)
T1 construct: expressed in transfected cells; host or cells: HEK 293
Protocol: (§1) IonWorks® Experimental Procedure
(§2) Compounds were tested on human Nav1.7 and Nav1.5 channels stably expressed in HEK 293 cells. Sodium current measurements on IonWorks Quattro: An automated patch-clamp assay on the IonWorks Quattro platform (Molecular Devices) was used to measure state-dependent inhibition of human Nav1.7 and 1.5 channels. Cells were sealed on a planar substrate using the Population Patch […] (PPC) technology. Electrical access was obtained using both nystatin and amphotericin. A double-pulse protocol was used for the determination of IC50 values for inactivated state block. Nav1.7 and Nav1.5 expressing cells were voltage clamped at −100 mV and −110 mV, respectively. A depolarizing prepulse to −10 mV (Nav1.7) or −30 mV (Nav1.5) for 1000 ms followed by a 10 ms repolarization to −100 mV (Nav1.7) or −110 mV (Nav1.5) was given to generate fractional channel inactivation of ˜ 50%, followed by a 10 ms test pulse to −10 mV (Nav1.7) or −30 mV (Nav1.5) to measure peak current in control conditions and after compound addition. The following recording solutions were used (mM). External: 150 NaCl, 2 CaCl2), 5 KCl, 1 Mg Cl2, 10 HEPES, 12 Dextrose; internal: 120 CsF, 30 CsCl, 10 EGTA, 5 HEPES, 5 NaF, 2 MgCl2.
(§3) For all electrophysiology experiments, offline analysis was used to determine percent inhibition as a function of drug concentration. IC50 values were determined by fitting to the Hill equation.
(§4) The various compounds in Examples 1 through 4 and Tables 1 through 3 exemplified above were assayed for activity and selectivity using the foregoing IonWorks® technique. The results are reported in the following paragraph in a format expressing the identification of the compound with reference Example and compound (e.g. Ex 1-9 is Example 1, compound 9) followed by the observed potency in nM and the ratio of Nav1.7 potency:Nav 1.5 potency as described here. […]

human Nav1.5 channels = biological target: T2, human Nav1.5 channels (Homo sapiens, UniProt Q14524); experiment: IonWorks Quattro automated patch-clamp, Nav1.5 (selectivity versus Nav1.7); assay type: cell-based; details: selectivity Nav1.7 over Nav1.5, both by IonWorks in HEK 293 cells
T2 construct: expressed in transfected cells; host or cells: HEK 293
Protocol: as §1, §2, §3, §4

T2 sequence (Q14524 whole entry): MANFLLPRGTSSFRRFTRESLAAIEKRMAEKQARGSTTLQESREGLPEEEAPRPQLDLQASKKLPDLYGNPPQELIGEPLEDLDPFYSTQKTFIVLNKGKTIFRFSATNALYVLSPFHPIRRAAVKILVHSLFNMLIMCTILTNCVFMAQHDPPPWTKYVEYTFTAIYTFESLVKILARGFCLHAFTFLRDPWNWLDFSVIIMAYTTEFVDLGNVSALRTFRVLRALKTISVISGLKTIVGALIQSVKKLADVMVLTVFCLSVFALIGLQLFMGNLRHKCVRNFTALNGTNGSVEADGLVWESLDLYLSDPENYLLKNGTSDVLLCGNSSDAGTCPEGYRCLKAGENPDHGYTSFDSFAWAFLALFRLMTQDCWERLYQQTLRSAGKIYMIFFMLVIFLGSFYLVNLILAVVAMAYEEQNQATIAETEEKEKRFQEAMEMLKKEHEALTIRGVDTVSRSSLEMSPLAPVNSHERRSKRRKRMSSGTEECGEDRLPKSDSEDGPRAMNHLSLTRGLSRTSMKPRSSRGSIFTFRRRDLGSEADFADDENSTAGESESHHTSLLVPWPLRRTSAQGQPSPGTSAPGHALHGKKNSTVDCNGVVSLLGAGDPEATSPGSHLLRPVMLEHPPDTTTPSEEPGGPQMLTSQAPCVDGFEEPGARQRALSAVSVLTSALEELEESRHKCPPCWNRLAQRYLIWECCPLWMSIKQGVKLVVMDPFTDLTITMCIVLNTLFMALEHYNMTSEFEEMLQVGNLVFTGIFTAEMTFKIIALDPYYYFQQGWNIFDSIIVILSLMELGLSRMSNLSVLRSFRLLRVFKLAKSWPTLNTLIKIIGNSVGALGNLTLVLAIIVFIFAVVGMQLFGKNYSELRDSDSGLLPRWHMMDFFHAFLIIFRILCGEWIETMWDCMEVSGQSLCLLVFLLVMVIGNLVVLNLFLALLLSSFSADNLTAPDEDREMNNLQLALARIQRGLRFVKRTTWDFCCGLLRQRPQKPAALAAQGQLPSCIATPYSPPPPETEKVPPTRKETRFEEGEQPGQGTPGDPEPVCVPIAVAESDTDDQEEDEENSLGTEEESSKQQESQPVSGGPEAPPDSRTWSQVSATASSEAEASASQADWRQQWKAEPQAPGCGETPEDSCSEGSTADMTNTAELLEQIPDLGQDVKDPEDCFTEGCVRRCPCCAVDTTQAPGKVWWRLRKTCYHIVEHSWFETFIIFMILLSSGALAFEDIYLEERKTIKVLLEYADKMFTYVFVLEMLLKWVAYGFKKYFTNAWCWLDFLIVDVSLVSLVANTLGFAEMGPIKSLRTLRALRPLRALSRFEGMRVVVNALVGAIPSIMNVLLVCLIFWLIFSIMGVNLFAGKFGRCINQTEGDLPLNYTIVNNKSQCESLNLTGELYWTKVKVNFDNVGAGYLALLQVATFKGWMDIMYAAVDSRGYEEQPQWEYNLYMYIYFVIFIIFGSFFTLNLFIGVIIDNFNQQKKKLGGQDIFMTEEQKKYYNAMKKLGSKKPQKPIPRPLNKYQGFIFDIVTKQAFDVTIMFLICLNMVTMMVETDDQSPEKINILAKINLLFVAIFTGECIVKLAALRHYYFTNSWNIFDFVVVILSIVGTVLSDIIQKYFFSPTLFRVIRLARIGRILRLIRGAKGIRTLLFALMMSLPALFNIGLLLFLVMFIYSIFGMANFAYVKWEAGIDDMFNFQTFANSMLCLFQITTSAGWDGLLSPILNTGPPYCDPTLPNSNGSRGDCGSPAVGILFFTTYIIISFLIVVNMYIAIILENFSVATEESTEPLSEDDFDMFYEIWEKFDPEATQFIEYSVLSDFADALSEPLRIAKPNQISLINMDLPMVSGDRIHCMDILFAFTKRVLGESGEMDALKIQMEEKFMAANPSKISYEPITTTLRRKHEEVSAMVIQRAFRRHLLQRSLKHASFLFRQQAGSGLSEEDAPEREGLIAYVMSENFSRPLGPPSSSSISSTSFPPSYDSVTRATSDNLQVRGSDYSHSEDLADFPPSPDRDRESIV
T1 sequence (Q15858 whole entry): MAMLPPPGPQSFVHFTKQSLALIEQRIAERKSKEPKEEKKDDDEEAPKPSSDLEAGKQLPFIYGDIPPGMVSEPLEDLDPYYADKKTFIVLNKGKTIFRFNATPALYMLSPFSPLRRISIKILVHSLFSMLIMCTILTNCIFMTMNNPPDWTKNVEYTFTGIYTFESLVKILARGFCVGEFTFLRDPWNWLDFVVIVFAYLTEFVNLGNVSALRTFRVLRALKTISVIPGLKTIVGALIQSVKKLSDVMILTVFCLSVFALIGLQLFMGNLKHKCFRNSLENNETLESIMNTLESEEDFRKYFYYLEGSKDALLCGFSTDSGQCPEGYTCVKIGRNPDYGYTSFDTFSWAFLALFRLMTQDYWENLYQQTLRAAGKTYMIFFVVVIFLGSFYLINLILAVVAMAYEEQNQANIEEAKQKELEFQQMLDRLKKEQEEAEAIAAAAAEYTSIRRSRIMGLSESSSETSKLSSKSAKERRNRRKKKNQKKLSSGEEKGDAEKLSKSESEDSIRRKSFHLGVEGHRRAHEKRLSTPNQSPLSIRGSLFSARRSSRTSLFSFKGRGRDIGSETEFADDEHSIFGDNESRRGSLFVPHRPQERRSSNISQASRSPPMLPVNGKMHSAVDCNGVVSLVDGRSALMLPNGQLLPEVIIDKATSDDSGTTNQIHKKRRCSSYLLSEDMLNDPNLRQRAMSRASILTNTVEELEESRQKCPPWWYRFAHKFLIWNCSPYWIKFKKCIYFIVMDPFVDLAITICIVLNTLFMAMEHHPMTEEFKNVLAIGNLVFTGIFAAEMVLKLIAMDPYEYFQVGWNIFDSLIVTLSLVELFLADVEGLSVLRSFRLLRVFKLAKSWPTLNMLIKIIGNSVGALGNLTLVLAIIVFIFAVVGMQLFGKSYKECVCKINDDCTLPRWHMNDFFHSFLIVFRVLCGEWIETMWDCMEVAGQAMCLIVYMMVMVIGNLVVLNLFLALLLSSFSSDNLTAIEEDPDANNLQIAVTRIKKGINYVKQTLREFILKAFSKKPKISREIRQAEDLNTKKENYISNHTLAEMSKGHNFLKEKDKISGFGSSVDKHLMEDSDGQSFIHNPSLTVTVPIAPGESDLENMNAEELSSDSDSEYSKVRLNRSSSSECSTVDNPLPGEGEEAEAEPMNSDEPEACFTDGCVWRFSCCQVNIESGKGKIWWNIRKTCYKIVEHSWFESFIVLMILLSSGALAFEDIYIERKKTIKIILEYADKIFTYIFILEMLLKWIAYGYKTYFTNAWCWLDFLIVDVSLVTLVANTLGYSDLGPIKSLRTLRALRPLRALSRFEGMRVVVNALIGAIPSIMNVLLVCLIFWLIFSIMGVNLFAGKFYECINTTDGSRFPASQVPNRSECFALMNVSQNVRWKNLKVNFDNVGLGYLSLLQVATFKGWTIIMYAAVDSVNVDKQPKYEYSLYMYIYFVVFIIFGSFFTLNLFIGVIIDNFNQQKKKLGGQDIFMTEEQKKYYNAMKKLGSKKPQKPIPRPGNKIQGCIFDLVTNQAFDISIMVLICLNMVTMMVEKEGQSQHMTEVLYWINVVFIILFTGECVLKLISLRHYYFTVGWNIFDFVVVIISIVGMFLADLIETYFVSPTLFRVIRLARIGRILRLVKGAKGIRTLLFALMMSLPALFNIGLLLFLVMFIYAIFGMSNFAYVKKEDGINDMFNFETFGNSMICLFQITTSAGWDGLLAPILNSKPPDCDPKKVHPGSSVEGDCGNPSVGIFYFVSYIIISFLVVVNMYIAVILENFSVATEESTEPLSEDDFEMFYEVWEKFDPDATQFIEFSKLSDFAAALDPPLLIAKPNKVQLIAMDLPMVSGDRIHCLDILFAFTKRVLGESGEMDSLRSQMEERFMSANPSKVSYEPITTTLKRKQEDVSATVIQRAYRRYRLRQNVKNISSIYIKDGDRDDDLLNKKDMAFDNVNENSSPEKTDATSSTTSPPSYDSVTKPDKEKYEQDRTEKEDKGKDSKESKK

SMILES | IC50 (human Nav1.7 channels) | ratio of Nav1.7 potency:Nav 1.5 potency (human Nav1.5 channels)
O=S(=O)(Nc1nccs1)c1cc(Cl)c(NC[C@]2(Cc3ccccc3)C[C@H](O)CN2)cc1F [Ex1-9, 4-((((2S,4S)-2-Benzyl-4-Hydroxypyrrolidin-2-Yl)Methyl)Amino)-5-Chloro-2-Fluoro-N-(Thiazol-2-Yl)Benzenesulfonamide] | 8 nM | 3976 and > 3976
O=S(=O)(Nc1nccs1)c1cc(Cl)c(NC[C@]2(CC3CCC3)C[C@H](O)CN2)cc1F [Ex1-15, 5-Chloro-4-((((2S,4S)-2-(Cyclobutylmethyl)-4-Hydroxypyrrolidin-2 Yl)Methyl)Amino)-2-Fluoro-N-(Thiazol-2-Yl)Benzenesulfonamide] | 4 nM | > 7500
O=S(=O)(Nc1nccs1)c1cc(Cl)c(NC[C@]2(Cc3ccc(Br)cc3)C[C@H](O)CN2)cc1F [Ex1-22, 4-((((2S,4S)-2-(4-Bromobenzyl)-4-Hydroxypyrrolidin-2-Yl)Methyl)Amino)-5-Chloro-2-Fluoro-N-(Thiazol-2-Yl)Benzenesulfonamide] | 4 nM | 84
O=S(=O)(Nc1nccs1)c1cc(Cl)c(NC[C@]2(CCc3ccccc3)C[C@H](O)CN2)cc1F [Ex1-28, 5-Chloro-2-Fluoro-4-((((2S,4S)-4-Hydroxy-2-Phenethylpyrrolidin-2-Yl)Methyl)-Amino)-N-(Thiazol-2-Yl)Benzenesulfonamide] | 3 nM | 11000
O=S(=O)(Nc1nccs1)c1cc(Cl)c(NC[C@]2(CCCc3ccccc3)C[C@H](O)CN2)cc1F [Ex1-29, 5-chloro-2-fluoro-4-((((2S,4S)-4-hydroxy-2-(3-phenylpropyl)-pyrrolidin-2-yl)methyl)amino)-N-(thiazol-2-yl)-benzene-sulfonamide] | 2 nM | 10500
O=S(=O)(Nc1nccs1)c1cc(Cl)c(NC[C@]2(Cc3cccc(Br)c3)C[C@H](O)CN2)cc1F [Ex1-30, 4-((((2S,4S)-2-(3-bromobenzyl)-4-hydroxypyrrolidin-2-yl)methyl)amino)-5-chloro-2-fluoro-N-(thiazol-2-yl) benzenesulfonamide] | 7 nM | 1220
COc1cccc(C[C@@]2(CNc3cc(F)c(S(=O)(=O)Nc4nccs4)cc3Cl)C[C@H](O)CN2)c1 [Ex1-31, 5-chloro-2-fluoro-4-((((2S,4S)-4-hydroxy-2-(3-methoxybenzyl)pyrrolidin-2-yl)methyl)amino)-N-(thiazol-2-yl) benzenesulfonamide] | 7 nM | 4714
Cc1cccc(C[C@@]2(CNc3cc(F)c(S(=O)(=O)Nc4nccs4)cc3Cl)C[C@H](O)CN2)c1 [Ex1-32] | 2 nM | 16500
O=S(=O)(Nc1nccs1)c1cc(Cl)c(NC[C@]2(Cc3cccc(F)c3)C[C@H](O)CN2)cc1F [Ex1-33, 5-chloro-2-fluoro-4-((((2S,4S)-2-(3-fluorobenzyl)-4-hydroxypyrrolidin-2-yl)methyl)amino)-N-(thiazol-2-yl) benzenesulfonamide] | 7 nM | 1714

Further lines, with some results ahead:

IC50 (human Nav1.7 channels) | SMILES | ratio of Nav1.7 potency:Nav 1.5 potency (human Nav1.5 channels)
4 nM | CC(C)(C)CC[C@@]1(CNc2cc(F)c(S(=O)(=O)Nc3nccs3)cc2Cl)C[C@H](O)CN1 [Ex1-34, 5-chloro-4-((((2S,4S)-2-(3,3-dimethylbutyl)-4-hydroxypyrrolidin-2-yl)methyl)amino)-2-fluoro-N-(thiazol-2-yl) benzenesulfonamide] | 6750
4 nM | N#Cc1ccc(C[C@@]2(CNc3cc(F)c(S(=O)(=O)Nc4nccs4)cc3Cl)C[C@H](O)CN2)cc1 [Ex2-2, 5-Chloro-4-((((2S,4S)-2-(4-Cyanobenzyl)-4-Hydroxypyrrolidin-2-Yl)Methyl)Amino)-2-Fluoro-N-(Thiazol-2-Yl)Benzenesulfonamide] | 3000
38 nM | NCc1ccc(C[C@@]2(CNc3cc(F)c(S(=O)(=O)Nc4nccs4)cc3Cl)C[C@H](O)CN2)cc1 [Ex2-3, 4-((((2S,4S)-2-(4-(Aminomethyl) Benzyl)-4-Hydroxypyrrolidin-2-Yl) Methyl)Amino)-5-Chloro-2-Fluoro-N-(Thiazol-2-Yl)Benzenesulfonamide] | 868
11 nM | N#Cc1cccc(C[C@@]2(CNc3cc(F)c(S(=O)(=O)Nc4nccs4)cc3Cl)C[C@H](O)CN2)c1 [Ex2-4, 5-chloro-4-((((2S,4S)-2-(3-cyanobenzyl)-4-hydroxypyrrolidin-2-yl)methyl)amino)-2-fluoro-N-(thiazol-2-yl)benzenesulfonamide] | 2909
4 nM | NCc1cccc(C[C@@]2(CNc3cc(F)c(S(=O)(=O)Nc4nccs4)cc3Cl)C[C@H](O)CN2)c1 [Ex2-5, 4-((((2S,4S)-2-(3-(aminomethyl)benzyl)-4-hydroxypyrrolidin-2-yl)methyl)amino)-5-chloro-2-fluoro-N-(thiazol-2-yl)benzenesulfonamide] | 6250
7 nM | O=S(=O)(Nc1nccs1)c1cc(Cl)c(NC[C@]2(Cc3ccc(-c4ccccn4)cc3)C[C@H](O)CN2)cc1F [Ex3-2, 5-Chloro-2-Fluoro-4-((((2S,4S)-4-Hydroxy-2-(4-(Pyridin-2-Yl)Benzyl)Pyrrolidin-2-Yl)Methyl)Amino)-N-(Thiazol-2-Yl)Benzenesulfonamide] | 543
9 nM | O=S(=O)(Nc1nccs1)c1cc(Cl)c(NC[C@]2(Cc3ccc(-c4ncco4)cc3)C[C@H](O)CN2)cc1F [Ex3-3, 5-chloro-2-fluoro-4-((((2S,4S)-4-hydroxy-2-(4-(oxazol-2-yl)benzyl)pyrrolidin-2-yl)methyl)amino)-N-(thiazol-2-yl)benzenesulfonamide] | 933
18 nM | O=S(=O)(Nc1nccs1)c1cc(Cl)c(NC[C@]2(Cc3ccc(-c4ccn[nH]4)cc3)C[C@H](O)CN2)cc1F [Ex4-2, 4-((((2S,4S)-2-(4-(1H-Pyrazol-5-Yl)Benzyl)-4-Hydroxypyrrolidin-2-Yl) Methyl)Amino)-5-Chloro-2-Fluoro-N-(Thiazol-2-Yl)Benzenesulfonamide] | 367

From patent publication US12427159B2, “Hydroxypyrrolidine-substituted arylsulfonamide compounds with selective activity in voltage-gated sodium channels” (Merck Sharp & Dohme LLC, priority 2019, dated 2025)
